# Measurements from PubChem BioAssay AID652179 (Johns Hopkins Ion Channel Center, 2013).
# Activity calls are given as the source filed them.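 How the source made its calls: active means maximum inhibition above 50% at any tested concentration, with a dose response curve fitted; inactive means no inhibition at any concentration or no dose response curve.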
# Biological target: TRPC4 (transient receptor potential cation channel C4), mouse
# Assay: TRPC4 channel inhibitors, SAR follow-up, cell-based, concentration-response (AID 652179)
# Conditions: HEK293 TRPC4/mu-opioid cells, Fluo-4 calcium fluorescence ratio
row,Structure (SMILES),IC50 [µM]
1,Cc1cc(N2CCC(F)CC2)nc2ccccc12,10.2
2,C[C@H]1CCCN1c1ccc2ccccc2n1,14.9
3,c1ccc2nc(N3CCCCC3)ccc2c1,4.61
4,Cc1cc(N2CCCC(F)C2)nc2ccccc12 (stereo unspecified),12.6
5,Cc1cc(N2CCCCC2)nc2ccccc12,1.53
6,Cc1cc(N2CCC(F)(F)CC2)nc2ccccc12,10.6

# Same assay, conditions: HEK293 TRPC4/mu-opioid cells, Fluo-4 calcium fluorescence ratio; at 20 µM (top of the series)
row,Structure (SMILES),"fluorescence ratio, lower = inhibition"
1,Cc1cc(N2CCC(O)C2)nc2ccccc12 (stereo unspecified),inactive
2,FC1CCCN(c2ccc3ccccc3n2)C1 (stereo unspecified),inactive
3,FC1CCN(c2ccc3ccccc3n2)CC1,inactive
4,Cc1cc(N2CCC(O)CC2)nc2ccccc12,inactive
5,Cc1cc(-n2cccc2)nc2ccccc12,inactive
6,FC1(F)CCN(c2ccc3ccccc3n2)CC1,inactive
7,Cc1cc(N2CCC(=O)CC2)nc2ccccc12,inactive
8,OC1CCCN(c2ccc3ccccc3n2)C1 (stereo unspecified),inactive
9,Cc1cc(-n2ccnc2)nc2ccccc12,inactive
10,OC1CCN(c2ccc3ccccc3n2)C1 (stereo unspecified),inactive
11,Cc1cc(N(C)C)nc2ccccc12,inactive
12,OC1CCN(c2ccc3ccccc3n2)CC1,inactive
13,O=C1CCN(c2ccc3ccccc3n2)CC1,inactive
14,Cc1cc(-n2cccn2)nc2ccccc12,inactive
15,c1ccc2nc(N3CCCC3)ccc2c1,inactive
